# Literature values as cited in patent publication US20130172186A1 (priority 2010, published 2013).
# Where two headings read alike, the source gives them in different places.
# Columns and labels:
# P. cinnamomi = settings: 40 μg/ml phosphonate in culture, 4 days later
# [1] = test system: phytoalexins and phenols in potato tubers; settings: tubers from treated plants after P. infestans challenge
molecule,measurement,setting,value
phosphonate,P. cinnamomi growth inhibited,P. cinnamomi,about 70%
phosphite,observed instances in which pathogen growth was arrested at the local hypersensitive cell death sites,"P. nicotianae; fosetyl-Al (100 μg/ml)- or phosphite (70 μg/ml)-treated tobacco seedlings, in 24 h",86%
"CCO[PH](=O)O [fosetyl-Al, aluminium tris(o-etyl phosphonate)]",increase of accumulation of phenols vs control tubers,[1],fivefold
same,increase of accumulation of phytoalexins vs control tubers,[1],approximately tenfold
same,observed instances in which pathogen growth was arrested at the local hypersensitive cell death sites,P. nicotianae; in vivo,86%
